One assay has as its system ECHOR. The experiment in a line: In-water applied weed control, transplanted paddy rice, greenhouse (Example II). The format is in vivo, Echinochloa oryzoides (Ard.) Fritsch.
For assay [1], the system named is LEFCH. The description is as above. It counts as in vivo, Leptochloa chinensis (L.) Nees. Conditions: 35 g ae/ha alone.
The test system of assay [2] is LEFCH. Put plainly: Postemergence foliar-applied weed control, direct seeded rice, greenhouse (Example I). Conditions: g ae/ha Compound A n-Butyl Ester+g ai/ha carfentrazone-ethyl: r11 16+0, r12 0+28, r13 16+28. It counts as in vivo, Leptochloa chinensis (L.) Nees.
The test system of assay [3] is IPOHE. The assay is described as above. The format is in vivo, Ipomoea hederacea Jacq.
Assay [4] relates to IPOHE. Put plainly: Pre-emergence soil-applied weed control, greenhouse (Example IV). It counts as in vivo, Ipomoea hederacea (L.) Jacq. An excerpt:
Seeds or nutlets of the desired test plant species were planted in a soil matrix prepared by mixing a loam soil (32 percent silt, 23 percent clay, and 45 percent sand, with a pH of about 6.5 and an organic matter content of about 1.9 percent) and calcareous grit in an 80 to 20 ratio. The soil matrix was contained in plastic pots with a volume of 1 quart and a surface area of 83.6 square centimeters (cm^2).
Treatments consisted of the benzyl ester of 4-amino-3-chloro-5-fluoro-6-(4-chloro-2-fluoro-3-methoxy-phenyl)pyridine-2-carboxylic acid (compound A) formulated as an SC (suspension concentrate) and various herbicidal components alone and in combination. Forms of compound A were applied on an acid equivalent basis.
Other herbicidal components were applied on an acid equivalent or active ingredient basis and included the protoporphyrinogen oxidase (PPO)-inhibiting herbicides, flumioxazin formulated as Payload® and oxadiazon formulated as Ronstar® 50W.
Treatment requirements were calculated based upon the rates being tested, the concentration of active ingredient or acid equivalent in the formulation, and a 12 mL application volume at a rate of 187 L/ha.
For treatments comprised of formulated compounds, measured amounts of compounds were placed individually in 25 mL glass vials and diluted in a volume of 1.25% (v/v) Agri-Dex® crop oil concentrate (COC) to obtain 12× stock solutions. […] Application solutions were prepared by adding an appropriate amount of each stock solution (e.g., 1 mL) and diluted to the appropriate final concentrations with the addition of 10 mL of an aqueous mixture of 1.25% (v/v) COC so that the final spray solutions contained 1.25% (v/v) COC.
All stock solutions and applications solutions were visually inspected for compound compatibility prior to application. Spray solutions were applied to the soil with an overhead Mandel track sprayer equipped with a 8002E nozzles calibrated to deliver 187 L/ha over an application area of 0.503 m^2 at a spray height of 18 inches (46 cm) above average pot height. Control pots were sprayed in the same manner with the solvent blank.
The treated and control pots were placed in a greenhouse and top watered as needed. When required to ensure good germination and healthy plants, a fungicide treatment and/or other chemical or physical treatment was applied. The pots were maintained in a greenhouse with an approximate 14 hr photoperiod which was maintained at about 29° C. during the day and 26° C. during the night. Nutrients (Peters® Excel 15-5-15 5-Ca 2-Mg) were applied in the irrigation solution as needed and water was added on a regular basis. Supplemental lighting was provided with overhead metal halide 1000-Watt lamps as necessary. After approximately 4 weeks, the condition of the test plants as compared with that of the untreated plants was determined visually and scored on a scale of 0 to 100 percent where 0 corresponds to no injury or growth inhibition and 100 corresponds to complete kill.
Colby's equation was used to determine the herbicidal effects expected from the mixtures (Colby, S. R. 1967. Calculation of the synergistic and antagonistic response of herbicide combinations. Weeds 15:20-22.).
The following equation was used to calculate the expected activity of mixtures containing two active ingredients, A and B: Expected=A+B−(A×B/100)

The subject of a further assay is DIGSA. The experiment in a line: Postemergence foliar-applied weed control, direct seeded rice, greenhouse (Example I). The format is in vivo, Digitaria sanguinalis (L.) Scop.
In the next assay the test system is SCPJU. The experiment in a line: In-water applied weed control, transplanted paddy rice, greenhouse (Example II). The format is in vivo, Schoenoplectus juncoides (Roxb.) Palla.
A further assay relates to CYPRO. The assay is described as above. The format is in vivo, Cyperus rotundus L.
A further assay relates to ECHCO. The experiment in a line: Postemergence foliar-applied weed control, direct seeded rice, greenhouse (Example I). It counts as in vivo, Echinochloa colona (L.) Link. Conditions: g ae/ha Compound A Acid+g ai/ha oxyfluorfen (SC): r24 4.38+0, r25 8.75+0, r26 0+90, r27 4.38+90, r28 8.75+90.
Assay [5] relates to ECHCG. The assay is described as above. It counts as in vivo, Echinochloa crusgalli (L.) Beauv.
Assay [6] deals with ECHCG. The experiment in a line: In-water applied weed control, transplanted paddy rice, greenhouse (Example II). The format is in vivo, Echinochloa crus-galli (L.) P. Beauv. Conditions: 56.25 g ai/ha alone.
In another assay the test system is FIMMI. The description is as above. It counts as in vivo, Fimbristylis miliacea (L.) Vahl.
Setting [7] is: g ae/ha Compound A n-Butyl Ester+g ai/ha oxadiazon: r11 17.5+0, r12 0+250, r13 17.5+250.

On to `CCCCOC(=O)c1nc(-c2ccc(Cl)c(OC)c2F)c(F)c(N)c1Cl` [Compound A n-Butyl Ester], for which the figures for the “Visual Weed Control (%) - 21 DAA ECHOR Obs” value in the assay with ECHOR (35 g ae/ha alone) and in the assay on ECHOR (70 g ae/ha alone) were 25% and 38%, respectively. Also, the “Visual Weed Control (%) - 21 DAA LEFCH Obs” value with LEFCH [1] is 8%. For the same compound, the “Visual Weed Control (%) - 19 DAA LEFCH Obs” value in the assay with LEFCH [2] is reported as 10%. The “Visual Weed Control (%) - 21 DAA IPOHE Obs” value with IPOHE [3] (setting [7]) was 40%.

Regarding `C#CCOc1cc(-n2nc(C(C)(C)C)oc2=O)c(Cl)cc1Cl` [Oxadiargyl, 3-[2,4-dichloro-5-(2-propynyloxy)phenyl]-5-(1,1-dimethylethyl)-1,3,4-oxadiazol-2(3H)-one], the “Visual Weed Control (%) - 22 DAA IPOHE Obs” value in the assay with IPOHE [3] (g ae/ha Compound A Acid+g ai/ha oxadiargyl: r10 4.38+0, r11 8.75+0, r12 17.5+0, r13 0+50, r14 4.38+50, r15 8.75+50, r16 17.5+50) is listed as 25%; in the assay on IPOHE [3] (g ae/ha Compound A Benzyl Ester+g ai/ha oxadiargyl: r11 4.38+0, r12 8.75+0, r13 0+50, r14 4.38+50, r15 8.75+50), 25%.

`CC(C)Oc1cc(-n2nc(C(C)(C)C)oc2=O)c(Cl)cc1Cl` [Oxadiazon, 3-[2,4-dichloro-5-(1-methylethoxy)phenyl]-5-(1,1-dimethylethyl)-1,3,4-oxadiazol-2(3H)-one]: the “Visual Weed Control (%) - 21 DAA ECHOR Obs” value is listed as 15% with ECHOR (62.5 g ai/ha alone); 18% with ECHOR (250 g ai/ha alone); 18% with ECHOR (second block, g ae/ha Compound A Acid+g ai/ha oxadiazon: r22 35+0, r23 70+0, r24 0+250, r25 35+250, r26 70+250). The “Visual Weed Control (%) - 32 DAA IPOHE Obs” value in the assay on IPOHE [4] (560 g ai/ha alone) worked out at 50%; with IPOHE [4] (1120 g ai/ha alone), 100%. Moreover, the “Visual Weed Control (%) - 21 DAA IPOHE Obs” value with IPOHE [3] (g ae/ha Compound A Benzyl Ester+g ai/ha oxadiazon: r33 17.5+0, r34 0+250, r35 17.5+250) was found to be 5%; in the assay with IPOHE [3] (setting [7]), 5%. Moreover, in the assay with IPOHE [3] (second section, g ae/ha Compound A Acid+g ai/ha oxadiazon: r23 17.5+0, r24 35+0, r25 0+250, r26 17.5+250, r27 35+250), the “Visual Weed Control (%) - 20 DAA IPOHE Obs” value is 5%.

Consider `CCOc1cc(Oc2ccc(C(F)(F)F)cc2Cl)ccc1[N+](=O)[O-]` [Oxyfluorfen, 2-chloro-1-(3-ethoxy-4-nitrophenoxy)-4-(trifluoromethyl)benzene, reference compound], for which, in the assay on DIGSA (g ae/ha Compound A Benzyl Ester+g ai/ha oxyfluorfen (SC): r14 4.38+0, r15 8.75+0, r16 17.5+0, r17 0+180, r18 4.38+180, r19 8.75+180, r20 17.5+180), the “Visual Weed Control (%) - 23 DAA DIGSA Obs” value was determined as 60%. The “Visual Weed Control (%) - 21 DAA DIGSA Obs” value in the assay on DIGSA (g ae/ha Compound A Benzyl Ester+g ai/ha oxyfluorfen (technical): r15 4.38+0, r16 8.75+0, r17 17.5+0, r18 0+180, r19 4.38+180, r20 8.75+180, r21 17.5+180) was determined as 50%. Also, the “Visual Weed Control (%) - 22 DAA SCPJU Obs” value with SCPJU (g ae/ha Compound A Acid+g ai/ha oxyfluorfen (technical): r19 8.75+0, r20 17.5+0, r21 35+0, r22 0+180, r23 0+360, r24 8.75+180, r25 17.5+180, r26 35+180, r27 8.75+360, r28 17.5+360, r29 35+360) worked out at 0%. Besides, the “Visual Weed Control (%) - 21 DAA CYPRO Obs” value in the assay with CYPRO (g ae/ha Compound A Acid+g ai/ha oxyfluorfen (SC): r28 16+0, r29 32+0, r30 64+0, r31 0+135, r32 0+270, r33 16+135, r34 32+135, r35 64+135, r36 16+270, r37 32+270, r38 64+270) is on record as 0%; in the assay with CYPRO (g ae/ha Compound A Benzyl Ester+g ai/ha oxyfluorfen (SC): r11 32+0, r12 0+135, r13 0+270, r14 32+135, r15 32+270), 0%. Further, the “Visual Weed Control (%) - 22 DAA CYPRO Obs” value in the assay with CYPRO (g ae/ha Compound A Acid+g ai/ha oxyfluorfen (technical): r11 10.6+0, r12 21.2+0, r13 42.4+0, r14 0+180, r15 10.6+180, r16 21.2+180, r17 42.4+180) stood at 50%. Also, the “Visual Weed Control (%) - 23 DAA ECHCO Obs” value in the assay on ECHCO was determined as 50%. For the same compound, the “Visual Weed Control (%) - 23 DAA ECHCG Obs” value with ECHCG [5] (g ae/ha Compound A Acid+g ai/ha oxyfluorfen (SC): r13 4.38+0, r14 8.75+0, r15 17.5+0, r16 0+180, r17 4.38+180, r18 8.75+180, r19 17.5+180) amounted to 30%. Moreover, the “Visual Weed Control (%) - 23 DAA IPOHE Obs” value with IPOHE [3] (g ae/ha Compound A Benzyl Ester+g ai/ha oxyfluorfen (SC): r36 4.38+0, r37 8.75+0, r38 17.5+0, r39 0+90, r40 0+180, r41 4.38+90, r42 8.75+90, r43 17.5+90, r44 4.38+180, r45 8.75+180, r46 17.5+180) came to 85%.

On to `CC(C)=C1OC(=O)N(c2cc(OC3CCCC3)c(Cl)cc2F)C1=O` [Pentoxazone, 3-[4-chloro-5-(cyclopentyloxy)-2-fluorophenyl]-5-(1-methylethylidene)-2,4-oxazolidinedione], for which the “Visual Weed Control (%) - 21 DAA SCPJU Obs” value with SCPJU (56.25 g ai/ha alone) and in the assay on SCPJU (112.5 g ai/ha alone) was 0% each time. The “Visual Weed Control (%) - 21 DAA CYPRO Obs” value with CYPRO (56.25 g ai/ha alone) and with CYPRO (112.5 g ai/ha alone) was 0% each time. Also, in the assay with ECHCG [6], the “Visual Weed Control (%) - 21 DAA ECHCG Obs” value was found to be 0%. Moreover, the figures for the “Visual Weed Control (%) - 21 DAA FIMMI Obs” value in the assay on FIMMI (56.25 g ai/ha alone) and in the assay on FIMMI (112.5 g ai/ha alone) were 25% and 20%, respectively.

For `CCOC(=O)COc1cc(-c2nn(C)c(OC(F)F)c2Cl)c(F)cc1Cl` [Pyraflufen-ethyl, ethyl 2-[2-chloro-5-[4-chloro-5-(difluoromethoxy)-1-methyl-1H-pyrazol-3-yl]-4-fluorophenoxy]acetate, reference compound], the “Visual Weed Control (%) - 21 DAA ECHCG Obs” value with ECHCG [5] (g ae/ha Compound A Benzyl Ester+g ai/ha pyraflufen-ethyl: r11 8+0, r12 0+5.3, r13 0+10.6, r14 8+5.3, r15 8+10.6) stood at 15%.
